Measured values: patent publication US20130259882A1, “Conjugate of Folate and Antibody Preparation Method and Use Thereof” (priority 2010, published 2013)
Marks after values point to notes of the source that are not given here.

Legend:
[1] = test system: rats with rheumatoid arthritis; assay: Complete Freund adjuvant induced rheumatoid arthritis model; format: in vivo, Wistar rat; settings: Diclofenac sodium 10 mg/kg orally
Description: Rat IgG and complete Freund adjuvant are from Sigma. Diclofenac sodium enteric-coated tablets are from Beijing Novartis Pharma Ltd. RF detection kit is from Nanjing JianCheng Bioengineering Institute. • 2. Animal: 50 healthy and mature Wistar rat, both male and female, body weight 150˜200 g are provided by Wuhan University Laboratory Animal Center, China.
Diclofenac sodium positive control group were given 10 mg/kg Diclofenac sodium orally. Normal control group and model group were Intra-peritoneally injected equal amount of saline. The injections were performed once per day. After measurement of right foot volume on day 0, 0.1 ml complete Freund adjuvant was subcutaneously injected into right ankle. On day 21, the right foot volume was measured after the last injection. Rats were sacrificed with ether inhalation after taking blood samples. The blood samples were centrifuged to get serum for the detection of rheumatoid factor (RF).
Rheumatoid factors RF: 100 μl serum were used with RF detection kit.

[2] = test system: folate receptor transfected MCF-7 cells; assay: Breast cancer model: folate receptor transfected MCF-7 cells injected subcutaneously in mice, tumor volume and mean survival time; format: in vivo, nude mice
Description: Animal: 50 healthy and mature female nude mice, body weight 18-22 g are provided by Nanjing University Model Animal Center.
By weight, the mice were randomly divided into normal control group, model group, Epirubicin positive control group, FIG 5 mg/kg group and 40 mg/kg group, FGIG 5 mg/kg group and 40 mg/kg group. 7 days before the beginning of the experiment, the mice were maintained with feed without folic acid. From day 0, model group, epirubicin positive control group, FIG 5 mg/kg group or 40 mg/kg group and FGIG 5 mg/kg group or 40 mg/kg group were subcutaneously injected with folate receptor transfected MCF-7 cells (1×10^6) each. From day 5, FIG 5 mg/kg group and FIG 40 mg/kg group were intra-peritoneally injected with FIG 5 mg/kg and 40 mg/kg, respectively). FGIG 5 mg/kg group and FGIG 40 mg/kg group were intra-peritoneally injected with FGIG (5 mg/kg and 40 mg/kg, respectively). Epirubicin positive control group were intra-peritoneally injected with Epirubicin (200 mg/kg). Normal control group and model group were intra-peritoneally injected equal amount of saline. The injections were performed once time every four days. 15 days after injection, the mice were fasting. The next day after treatment, tumor volume was measured with vernier caliper and mean survival time was also calculated.
Volume: solid tumor volume was calculated using the following formula: V=0.5×L×W×H.

[3] = test system: mice with inflammatory bowel disease; assay: Acetic acid induced colitis (inflammatory bowel disease model); format: in vivo, Kunming mice; settings: Mesalazine 600 mg/kg orally
Description: Mesalazine SR Granules are from Ethypharm (France). MPO detection kit is from Nanjing Jian-Cheng Bioengineering Institute. • 2. Animal: 50 healthy and mature male Kunming mice, body weight 18-22 g are provided by Nanjing University model animal center.
Mesalazine positive control group were given 600 mg/kg Mesalazine orally. Control group and model groups were i.p. injected with equal amount of saline. The injections were performed once per day.
Acetic acid stimulation was used to induce colitis. The mice were fasting on day 9, and on day 10, were anaesthetized with ether inhalation. Before injection, the intestinal was cleaned, with a polyethylene pipe containing 0.1 ml 6% acetic acid inserted about 1.5 cm into the anus.
Colon macroscopic damage index (CMDI): The entire colon was taken and scissored along the mesenteric. The adhesion, ulcer and congestion were scored by naked eye observation according to the Table 7. • 2. Myeloperoxidase (MPO): The tissues were weighted and homogenized (1:19, weight/volume) in Tris buffer. After homogenization and repeated freezing and thawing, the tissues were made to 5% homogenate. MPO detection was performed according to kit manufacturer's instructions and the protein level was detected using the Lowry method.

Q: Which results are given for O=C(O)Cc1ccccc1Nc1c(Cl)cccc1Cl [Diclofenac sodium]?
A: Joint injury score ([1]; day 21): 0.6 ± 0.22; RF ([1]; rheumatoid factor in serum): 15.2 ± 1.99 pg/mL; Toe volume difference ([1]; right foot, day 21 vs day 0): 0.090 ± 0.052 mL

Q: COc1cccc2c1C(=O)c1c(O)c3c(c(O)c1C2=O)C[C@@](O)(C(=O)CO)C[C@@H]3O[C@H]1C[C@H](N)[C@@H](O)[C@H](C)O1 [Epirubicin] was tested. Which “Mean survival time (days)” value ([2]; Epirubicin 200 mg/kg i.p.) did it give?
A: 9 ^▴▴ days

Q: And the “Volume of tumor (cm^3)” value ([2]; Epirubicin 200 mg/kg i.p. every four days, day 16)?
A: 6.18 ± 1.34 ^▴▴ cm^3

Q: For Nc1ccc(O)c(C(=O)O)c1 [Mesalazine], which “Colon coefficient (g/100 g)” value [3] is on record?
A: 1.21 ± 0.13 g/100 g

Q: What about the “MPO (U/mg · pro.)” value ([3]; colon tissue) of the same molecule?
A: 2.42 ± 0.11 U/mg · pro.

Q: And the Inflammation rating level ([3]; score per Table 7)?
A: 1.9 ± 0.5
